Source: ChEMBL document CHEMBL2331203, “Optimization of inhibitors of the tyrosine kinase EphB4. 2. Cellular potency improvement and binding mode validation by X-ray crystallography” (J Med Chem, 2013)

Key:
[1] = Cytotoxicity against human RXF 393NL cells after 4 days by propidium iodide staining; details: 96 h
DU-145 = test: Cytotoxicity against human PRXF DU145 cells after 4 days by propidium iodide staining; details: DU-145, 96 h
[2] = Cytotoxicity against human CXF 1103L cells after 4 days by propidium iodide staining; details: 96 h
[3] = Cytotoxicity against human GXF251L cells after 4 days by propidium iodide staining; details: GXF 251L, 96 h
[4] = Cytotoxicity against human PAXF 1657L cells after 4 days by propidium iodide staining; details: 96 h
[5] = Cytotoxicity against human LXFA 983L cells after 4 days by propidium iodide staining; details: 96 h
[6] = Permeability from apical to basolateral side in human Caco2 cells assessed as compound recovery after 2 hrs by LC-MS/MS analysis; assay type: ADME, cell-based; details: Caco-2, read-out: permeability
[7] = Apparent permeability from apical to basolateral side in human Caco2 cells after 2 hrs by LC-MS/MS analysis; assay type: ADME, cell-based; details: Caco-2
[8] = Apparent permeability from basolateral to apical side in human Caco2 cells after 2 hrs by LC-MS/MS analysis; assay type: ADME, cell-based; details: Caco-2
[9] = Permeability from basolateral to apical side in human Caco2 cells assessed as compound recovery after 2 hrs by LC-MS/MS analysis; assay type: ADME, cell-based; details: Caco-2, read-out: permeability
[10] = target: T1, Ephrin type-B receptor 4 (Homo sapiens) (UniProt P54760); test: Inhibition of EphB4 (unknown origin) transfected in CHO cells using Z'-LYTE TYR-1 peptide as substrate at 10 uM after 2 hrs by FRET assay; assay type: cell-based
T1 sequence (whole entry): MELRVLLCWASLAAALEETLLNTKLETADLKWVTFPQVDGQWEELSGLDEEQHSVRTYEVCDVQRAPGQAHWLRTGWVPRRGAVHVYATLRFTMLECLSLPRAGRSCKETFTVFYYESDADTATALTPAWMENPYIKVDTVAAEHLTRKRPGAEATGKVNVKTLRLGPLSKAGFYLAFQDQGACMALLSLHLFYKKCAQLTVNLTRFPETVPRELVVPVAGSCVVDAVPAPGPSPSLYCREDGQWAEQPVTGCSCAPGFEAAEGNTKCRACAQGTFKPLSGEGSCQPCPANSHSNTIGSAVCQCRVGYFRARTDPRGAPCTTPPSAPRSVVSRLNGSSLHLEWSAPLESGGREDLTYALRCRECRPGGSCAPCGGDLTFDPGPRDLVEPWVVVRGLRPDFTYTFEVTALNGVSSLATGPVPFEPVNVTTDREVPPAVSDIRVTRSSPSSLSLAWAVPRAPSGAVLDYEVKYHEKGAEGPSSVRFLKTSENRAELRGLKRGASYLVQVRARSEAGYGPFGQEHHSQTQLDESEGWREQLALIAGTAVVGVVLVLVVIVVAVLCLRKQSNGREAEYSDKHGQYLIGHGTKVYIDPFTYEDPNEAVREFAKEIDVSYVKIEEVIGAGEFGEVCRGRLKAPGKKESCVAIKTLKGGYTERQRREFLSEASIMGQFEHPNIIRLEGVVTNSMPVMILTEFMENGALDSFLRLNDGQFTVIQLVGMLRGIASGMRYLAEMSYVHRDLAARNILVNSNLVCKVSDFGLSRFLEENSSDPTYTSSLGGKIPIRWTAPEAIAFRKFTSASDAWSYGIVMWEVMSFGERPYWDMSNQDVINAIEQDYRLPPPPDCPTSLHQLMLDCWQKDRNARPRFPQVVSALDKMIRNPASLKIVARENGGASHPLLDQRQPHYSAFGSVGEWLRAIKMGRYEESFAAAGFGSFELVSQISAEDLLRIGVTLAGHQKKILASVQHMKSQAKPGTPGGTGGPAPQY

[11] = target: Tyrosine-protein kinase Lck (Homo sapiens, UniProt P06239); test: Inhibition of Lck (unknown origin) using [gamma-33P]ATP after 30 mins by radiometric assay
K562 = test: Cytotoxicity against human K562 cells by SRB assay; assay type: functional
[12] = target: Proto-oncogene tyrosine-protein kinase Src (Homo sapiens, UniProt P12931)
Description: Inhibition of Src (unknown origin) using [gamma-33P]ATP after 30 mins by radiometric assay

Ephrin type-B receptor 4 = target: T2, Ephrin type-B receptor 4 (Homo sapiens, UniProt P54760)
T2 sequence (P54760 whole entry): T1 sequence (whole entry)
Description: Inhibition of human myc-tagged full length EphB4 expressed in MEF cells assessed as inhibition of ephrinB2-Fc-induced autophosphorylation incubated for 90 mins prior to ephrinB2-Fc-induction measured after 2 hrs by sandwich ELISA

in vitro = details: human, Caco-2
Description: Efflux ratio of apparent permeability from basolateral to apical side to apical to basolateral side in human Caco2 cells

SNB-75 = test: Cytotoxicity against human SNB75 cells by SRB assay; assay type: functional
Hs-578T = test: Cytotoxicity against human Hs578T cells by SRB assay; assay type: functional
[13] = target: Tyrosine-protein kinase ABL1 (Homo sapiens, UniProt P00519)
Sequence of Tyrosine-protein kinase ABL1 (P00519 whole entry): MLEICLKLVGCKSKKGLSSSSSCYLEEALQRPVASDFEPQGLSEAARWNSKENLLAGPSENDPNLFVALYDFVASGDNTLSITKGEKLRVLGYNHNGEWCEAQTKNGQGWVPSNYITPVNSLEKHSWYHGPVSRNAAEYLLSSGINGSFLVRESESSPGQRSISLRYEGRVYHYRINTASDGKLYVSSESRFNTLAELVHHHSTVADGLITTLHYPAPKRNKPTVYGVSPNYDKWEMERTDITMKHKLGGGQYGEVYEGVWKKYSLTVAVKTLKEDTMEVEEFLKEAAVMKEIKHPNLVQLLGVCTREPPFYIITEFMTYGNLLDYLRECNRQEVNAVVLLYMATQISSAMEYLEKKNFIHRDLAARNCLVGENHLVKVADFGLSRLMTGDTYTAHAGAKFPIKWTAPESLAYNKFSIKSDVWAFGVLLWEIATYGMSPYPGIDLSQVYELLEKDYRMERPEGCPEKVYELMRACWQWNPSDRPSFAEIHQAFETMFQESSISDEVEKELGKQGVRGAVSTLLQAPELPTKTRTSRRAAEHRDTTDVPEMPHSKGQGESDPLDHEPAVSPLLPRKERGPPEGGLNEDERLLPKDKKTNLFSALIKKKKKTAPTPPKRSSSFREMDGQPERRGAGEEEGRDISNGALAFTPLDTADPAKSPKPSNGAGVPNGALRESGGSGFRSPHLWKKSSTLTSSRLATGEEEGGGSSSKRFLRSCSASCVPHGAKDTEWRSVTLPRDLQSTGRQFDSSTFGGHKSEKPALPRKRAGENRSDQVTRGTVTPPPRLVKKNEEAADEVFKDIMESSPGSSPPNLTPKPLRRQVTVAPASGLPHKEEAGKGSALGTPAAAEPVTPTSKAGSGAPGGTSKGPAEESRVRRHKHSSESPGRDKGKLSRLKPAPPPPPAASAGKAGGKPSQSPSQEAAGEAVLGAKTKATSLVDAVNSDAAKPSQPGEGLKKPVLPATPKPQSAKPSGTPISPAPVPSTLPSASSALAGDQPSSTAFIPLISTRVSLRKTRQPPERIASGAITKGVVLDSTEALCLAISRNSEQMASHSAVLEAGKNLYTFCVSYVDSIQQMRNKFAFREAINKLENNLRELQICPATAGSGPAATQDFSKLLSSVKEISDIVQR
Description: Inhibition of Abl (unknown origin) using [gamma-33P]ATP after 30 mins by radiometric assay

Sequence of Tyrosine-protein kinase Lck (P06239 whole entry): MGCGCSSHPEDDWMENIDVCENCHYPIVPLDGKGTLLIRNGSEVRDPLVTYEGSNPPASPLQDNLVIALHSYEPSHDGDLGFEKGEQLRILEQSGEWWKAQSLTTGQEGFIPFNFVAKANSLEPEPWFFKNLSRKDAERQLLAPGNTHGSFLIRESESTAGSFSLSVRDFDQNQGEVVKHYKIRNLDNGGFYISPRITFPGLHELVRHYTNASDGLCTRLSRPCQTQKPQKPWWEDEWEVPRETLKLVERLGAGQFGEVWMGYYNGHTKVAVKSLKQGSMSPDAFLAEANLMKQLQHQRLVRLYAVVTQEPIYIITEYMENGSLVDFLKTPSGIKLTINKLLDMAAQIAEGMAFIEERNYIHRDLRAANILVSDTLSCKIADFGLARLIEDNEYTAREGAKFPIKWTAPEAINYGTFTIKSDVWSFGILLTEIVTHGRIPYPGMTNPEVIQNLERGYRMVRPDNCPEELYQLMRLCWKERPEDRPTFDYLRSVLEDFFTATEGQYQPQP
Sequence of Proto-oncogene tyrosine-protein kinase Src (P12931 2-536 limits assumed): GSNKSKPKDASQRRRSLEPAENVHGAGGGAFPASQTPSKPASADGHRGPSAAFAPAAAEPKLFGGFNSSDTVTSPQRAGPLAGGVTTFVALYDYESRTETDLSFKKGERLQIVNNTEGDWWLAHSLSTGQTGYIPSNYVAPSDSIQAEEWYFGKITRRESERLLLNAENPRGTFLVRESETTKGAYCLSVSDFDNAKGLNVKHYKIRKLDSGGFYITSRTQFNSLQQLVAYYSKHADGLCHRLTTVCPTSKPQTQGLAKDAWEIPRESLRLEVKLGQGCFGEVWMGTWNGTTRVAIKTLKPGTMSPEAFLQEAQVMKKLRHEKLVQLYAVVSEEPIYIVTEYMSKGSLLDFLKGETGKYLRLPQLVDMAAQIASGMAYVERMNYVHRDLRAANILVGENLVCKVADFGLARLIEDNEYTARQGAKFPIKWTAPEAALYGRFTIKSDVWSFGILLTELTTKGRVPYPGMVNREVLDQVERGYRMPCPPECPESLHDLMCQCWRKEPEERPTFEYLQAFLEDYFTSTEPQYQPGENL

| Compound | inhibition [10] [%] | IC50 [1] [µM] | IC50 (DU-145) [µM] | IC50 [2] [µM] | IC50 [3] [µM] | IC50 [4] [µM] | IC50 [5] [µM] | other results |
| --- | --- | --- | --- | --- | --- | --- | --- | --- |
| CCCCCn1c(-c2ccccc2C)cn2c3c(=O)[nH]c(=O)n(C)c3nc12 |  | 5.58 | 6.97 | 2.57 | 4.98 | 5.88 | 2.72 |  |
| CCCCn1c(-c2ccccc2Cl)cn2c3c(=O)[nH]c(=O)n(C)c3nc12 |  | 2.93 | 3.18 | 1.14 | 18.2 | 4.94 | 1.62 |  |
| COc1ccccc1-n1c(-c2ccccc2)cn2c3c(=O)[nH]c(=O)n(C)c3nc12 |  |  |  |  |  |  |  | recovery at 2 h [6]: 71%; Papp A→B at 2 h [7]: 323 nm/s; Papp B→A at 2 h [8]: 358 nm/s; recovery at 2 h [9]: 76% |
| CCCCn1c(-c2c(C)cccc2C)cn2c3c(=O)[nH]c(=O)n(C)c3nc12 | 49 |  |  |  |  |  |  |  |
| CCCCn1c(-c2ccc(F)cc2C)cn2c3c(=O)[nH]c(=O)n(C)c3nc12 |  | 8.69 | 9.59 | 4.04 | 14.9 | 9.46 | 6.02 | IC50 [11]: 0.617 µM |
| CCCCn1c(-c2ccccc2)cn2c3c(=O)[nH]c(=O)n(C)c3nc12 |  |  |  |  |  |  |  | recovery at 2 h [6]: 69%; Papp A→B at 2 h [7]: 425 nm/s; Papp B→A at 2 h [8]: 425 nm/s; recovery at 2 h [9]: 78% |
| COc1ccccc1-n1c(-c2cc(O)ccc2C)cn2c3c(=O)[nH]c(=O)n(C)c3nc12 |  | 1.76 | 2.7 | 32.6 | 20.2 | 2.01 | 9.16 | GI50 (K562): 0.309 µM; recovery at 2 h [6]: 51%; Papp A→B at 2 h [7]: 31.3 nm/s; IC50 [12]: 0.00114 µM; IC50 (Ephrin type-B receptor 4): 0.13 µM; Papp B→A at 2 h [8]: 230 nm/s; efflux ratio (in vitro): 7.3; recovery at 2 h [9]: 74%; GI50 (SNB-75): 0.128 µM; GI50 (Hs-578T): 0.562 µM; IC50 [11]: 0.0013 µM; IC50 [13]: 0.00092 µM |
| CCCCn1c(-c2cccc(Cl)c2)cn2c3c(=O)[nH]c(=O)n(C)c3nc12 | 22 |  |  |  |  |  |  |  |
| Cc1nc(Nc2ncc(C(=O)Nc3c(C)cccc3Cl)s2)cc(N2CCN(CCO)CC2)n1 [DASATINIB] |  | 0.0217 | 0.0623 | 4.36 | 2.25 | 0.121 | 0.0565 |  |

More lines, main results first:

| inhibition [10] [%] | Compound | IC50 [1] [µM] | IC50 (DU-145) [µM] | IC50 [2] [µM] | IC50 [3] [µM] | IC50 [4] [µM] | IC50 [5] [µM] | other results |
| --- | --- | --- | --- | --- | --- | --- | --- | --- |
| 12 | COc1ccccc1-n1c(-c2cccc(Cl)c2)cn2c3c(=O)[nH]c(=O)n(C)c3nc12 |  |  |  |  |  |  |  |
| 15 | CCCCn1c(-c2ccccc2C(F)(F)F)cn2c3c(=O)[nH]c(=O)n(C)c3nc12 |  |  |  |  |  |  |  |
